Laboratory results published in publication PMC9944867, “Mechanistic in vitro studies indicate that the clinical drug–drug interactions between protease inhibitors and rosuvastatin are driven by inhibition of intestinal BCRP and hepatic OATP1B1 with minimal contribution from OATP1B3, NTCP and OAT3” (Pharmacology Research & Perspectives, 2023).
pIC50: −log10 of the molar value. “And” between values parts separate entries of the source, which are not always exact repeats. Identical values can stand only once. Like-named read-outs stand apart in the source and are kept apart here.

Tests used:
[1] = molecular target: T1, BCRP (Homo sapiens, UniProt Q9UNQ0); test: Caco-2 unidirectional (B-A) BCRP inhibition assay, [3H]-estrone 3-sulfate transport (IC50 determination)
T1 sequence (Q9UNQ0 1-655): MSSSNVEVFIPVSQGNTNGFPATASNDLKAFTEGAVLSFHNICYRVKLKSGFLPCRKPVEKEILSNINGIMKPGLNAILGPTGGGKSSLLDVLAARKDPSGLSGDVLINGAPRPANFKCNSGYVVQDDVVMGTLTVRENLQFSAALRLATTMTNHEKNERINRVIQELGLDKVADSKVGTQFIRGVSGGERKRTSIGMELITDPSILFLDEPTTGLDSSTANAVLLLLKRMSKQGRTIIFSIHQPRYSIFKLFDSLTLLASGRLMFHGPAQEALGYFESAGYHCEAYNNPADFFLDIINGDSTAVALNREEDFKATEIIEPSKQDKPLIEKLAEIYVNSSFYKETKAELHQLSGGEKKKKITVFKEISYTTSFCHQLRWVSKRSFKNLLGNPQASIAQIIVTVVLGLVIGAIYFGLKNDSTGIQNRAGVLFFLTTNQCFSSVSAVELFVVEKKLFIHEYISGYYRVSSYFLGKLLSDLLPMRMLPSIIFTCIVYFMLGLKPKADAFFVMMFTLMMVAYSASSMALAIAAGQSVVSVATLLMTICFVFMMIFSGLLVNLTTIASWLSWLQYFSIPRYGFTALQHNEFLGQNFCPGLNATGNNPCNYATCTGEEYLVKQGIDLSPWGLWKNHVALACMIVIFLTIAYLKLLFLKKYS
Experimental: The methodology used was adapted from the previously validated Caco‐2 unidirectional (basolateral to apical; B‐A) BCRP inhibition assay.[13]
The BCRP inhibition experiments were performed between day 18 to 22 post‐seeding. […] After pre‐incubation, transport buffer was removed and the appropriate donor solutions were added to the basolateral donor compartment. […] Receiver solutions (final DMSO concentration of ≤1 % v/v) in transport buffer containing either the corresponding concentration of test inhibitor or DMSO (vehicle control), and the fluorescent cell monolayer integrity marker lucifer yellow (100 μM), were added to the apical compartments (total volume = 90 μL). Incubations were conducted in triplicate wells per assay condition in a heated incubator at 37°C for 90 min. Following the incubation, the amount (pmol) of [^3H]‐estrone 3‐sulfate appearing in the receiver compartment was determined by sampling (50 μL) into a white walled clear bottomed multiwell plate, to which scintillation fluid (200 μL) was added, and then samples counted on a Microbeta2 liquid scintillation counter (PerkinElmer). The quantified amount (derived from disintegrations per minute; DPM) of [^3H]‐estrone 3‐sulfate was subsequently converted to concentration (pmol/mL) and used to calculate apparent permeability (Papp), as described previously.[18]

[2] = molecular target: T2, human NTCP (SLC10A1) (Homo sapiens, UniProt Q14973); test: NTCP inhibition in transporter-expressing HEK293 cells, [3H]-taurocholic acid uptake (IC50 determination); format: cell-based; details: for pIC50: NTCP-mediated transport of [3H]-taurocholic acid (1 μM), HEK293
T2 construct: host or cells: HEK293 TransportoCells
T2 sequence (Q14973 1-349): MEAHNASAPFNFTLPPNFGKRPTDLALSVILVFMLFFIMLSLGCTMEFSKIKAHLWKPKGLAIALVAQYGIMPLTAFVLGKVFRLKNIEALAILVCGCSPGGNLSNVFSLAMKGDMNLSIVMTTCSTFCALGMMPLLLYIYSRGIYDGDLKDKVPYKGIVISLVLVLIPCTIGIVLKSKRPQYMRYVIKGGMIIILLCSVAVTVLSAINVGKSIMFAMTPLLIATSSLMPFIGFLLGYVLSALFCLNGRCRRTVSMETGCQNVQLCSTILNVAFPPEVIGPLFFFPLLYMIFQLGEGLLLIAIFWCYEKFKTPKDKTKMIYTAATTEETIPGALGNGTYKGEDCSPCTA

[3] = molecular target: T3, human OAT3 (SLC22A8) (Homo sapiens, UniProt Q8TCC7); test: OAT3 single concentration inhibition screen in HEK293 cells; format: cell-based; details: ≥10x unbound [Cmax]: atazanavir 15 μM, darunavir 10 μM, lopinavir 3 μM, ritonavir 0.1 μM; probe 1 μM
T3 construct: host or cells: HEK293 TransportoCells
T3 sequence (Q8TCC7 1-542): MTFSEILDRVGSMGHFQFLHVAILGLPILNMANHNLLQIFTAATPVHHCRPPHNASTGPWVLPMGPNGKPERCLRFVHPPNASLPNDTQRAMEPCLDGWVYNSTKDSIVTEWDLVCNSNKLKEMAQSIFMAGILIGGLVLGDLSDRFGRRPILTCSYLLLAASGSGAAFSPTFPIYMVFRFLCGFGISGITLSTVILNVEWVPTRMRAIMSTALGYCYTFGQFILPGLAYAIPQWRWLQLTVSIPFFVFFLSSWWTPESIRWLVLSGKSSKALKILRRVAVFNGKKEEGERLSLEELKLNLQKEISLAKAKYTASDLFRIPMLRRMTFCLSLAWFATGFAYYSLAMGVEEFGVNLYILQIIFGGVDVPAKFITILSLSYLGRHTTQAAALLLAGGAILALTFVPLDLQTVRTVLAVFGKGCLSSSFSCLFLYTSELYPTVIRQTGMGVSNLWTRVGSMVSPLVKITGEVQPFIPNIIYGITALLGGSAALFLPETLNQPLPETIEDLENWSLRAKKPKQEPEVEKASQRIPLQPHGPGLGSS

[4] = system: intestinal BCRP and hepatic OATP1B1, OATP1B3, NTCP
[5] = system: NTCP; set-up: method as in Vildhede et al.[33]; details: ref Vildhede et al.[33], cited from earlier work
[6] = system: OAT3; set-up: method as in Yoshida et al.[32]; details: up to 10 μM; ref Yoshida et al.[32]; cited from earlier work
[7] = system: OATP1B1; details: probe substrate atorvastatin; ref Karlgren et al.[31]; cited from earlier work
[8] = system: intestinal BCRP and hepatic OATP1B1, OATP1B3, NTCP; test: Mechanistic static prediction of rosuvastatin AUC change (AUCR); details: predicted AUCR 1.01
[9] = IC50 mean (BCRP), BCRP-mediated B-A transport of [3H]-estrone 3-sulfate (1 μM), Caco-2, mean (±SD) of occasions, IC50 equates to Ki
[10] = mean (±SD) of three occasions, read-out: IC50 mean (NTCP)
[11] = single occasion, read-out: IC50, determined values from different occasions (NTCP)

| R value (NTCP) ([2]; FDA static equation R = 1 + [Iin max u]/Ki, potential for interaction if ≥1.1) | inhibition [4] | SMILES | pIC50 [1] | pIC50 [1, 9] | pIC50 [2, 10] | pIC50 [2, 11] | Inhibition of OAT3-mediated [3H]-estrone 3-sulfate transport, single concentration screen [3] | Inhibition of NTCP, published ([5]; tested up to 40 μM) | Inhibition of OAT3, published [6] | Published IC50/Ki (OATP1B1) [7] | Reduction in NTCP function reflected by predicted AUCR [8] [%] | Inhibition of NTCP, published ([5]; tested up to 10 μM) |
| --- | --- | --- | --- | --- | --- | --- | --- | --- | --- | --- | --- | --- |
| 1.07 | ~80% and 75% | COC(=O)N[C@H](C(=O)N[C@@H](Cc1ccccc1)[C@@H](O)CN(Cc1ccc(-c2ccccn2)cc1)NC(=O)[C@@H](NC(=O)OC)C(C)(C)C)C(C)(C)C [atazanavir] | 4.30 and 4.52 and 4.29 and 4.43 | 4.37 | 4.18 | 4.25 and 4.20 and 4.11 | neither atazanavir, darunavir, lopinavir nor ritonavir inhibited OAT3 transport | no inhibition | no inhibition | 0.91 (atorvastatin) μM | 4 | – |
| – | – | Cc1cccc(C)c1OCC(=O)N[C@@H](Cc1ccccc1)[C@@H](O)C[C@H](Cc1ccccc1)NC(=O)[C@H](C(C)C)N1CCCNC1=O [lopinavir] | 4.90 and 4.74 and 4.81 | 4.81 | 4.69 | 4.65 and 4.74 and 4.70 | neither atazanavir, darunavir, lopinavir nor ritonavir inhibited OAT3 transport | – | no inhibition | – | – | no inhibition |
